Measured values: the NIST ThermoML archive (doi:10.1021/je7003929)

Test: xn = mol fraction of the nth substance listed
Settings: Liquid, Vibrating tube method

c1ccc2sccc2c1 [benzo[b]thiophene] + CCCCCC
Settings	mass density [kg/m3]
322.95 K, 1028 kPa, x2 = 0.0629	1103.4
322.95 K, 2021 kPa, x2 = 0.0629	1104.1
322.95 K, 3029 kPa, x2 = 0.0629	1104.7
322.95 K, 4021 kPa, x2 = 0.0629	1105.4
322.95 K, 5037 kPa, x2 = 0.0629	1106.1
322.95 K, 6021 kPa, x2 = 0.0629	1106.7
322.95 K, 7021 kPa, x2 = 0.0629	1107.4
322.95 K, 8029 kPa, x2 = 0.0629	1108.1
322.95 K, 9018 kPa, x2 = 0.0629	1108.7
322.95 K, 10003 kPa, x2 = 0.0629	1109.3
322.95 K, 10998 kPa, x2 = 0.0629	1109.9
322.95 K, 12016 kPa, x2 = 0.0629	1110.6
322.95 K, 13012 kPa, x2 = 0.0629	1111.2
322.95 K, 14019 kPa, x2 = 0.0629	1111.8
322.95 K, 15018 kPa, x2 = 0.0629	1112.5
322.95 K, 16018 kPa, x2 = 0.0629	1113.1
322.95 K, 17024 kPa, x2 = 0.0629	1113.7
322.95 K, 18018 kPa, x2 = 0.0629	1114.4
322.95 K, 19024 kPa, x2 = 0.0629	1115
322.95 K, 20012 kPa, x2 = 0.0629	1115.6
323.02 K, 1017 kPa, x2 = 0.7491	752.7
323.02 K, 2013 kPa, x2 = 0.7491	753.8
323.02 K, 3014 kPa, x2 = 0.7491	754.9
323.02 K, 4012 kPa, x2 = 0.7491	756
323.02 K, 5008 kPa, x2 = 0.7491	757.1
323.02 K, 6010 kPa, x2 = 0.7491	758.1
323.02 K, 7025 kPa, x2 = 0.7491	759.2
323.02 K, 8028 kPa, x2 = 0.7491	760.2
323.02 K, 9009 kPa, x2 = 0.7491	761.2
323.02 K, 10010 kPa, x2 = 0.7491	762.2
323.02 K, 11002 kPa, x2 = 0.7491	763.2
323.02 K, 12017 kPa, x2 = 0.7491	764.1
323.02 K, 13019 kPa, x2 = 0.7491	765.1
323.02 K, 14006 kPa, x2 = 0.7491	766
323.02 K, 15015 kPa, x2 = 0.7491	767
323.02 K, 16022 kPa, x2 = 0.7491	767.9
323.02 K, 17019 kPa, x2 = 0.7491	768.8
323.02 K, 18016 kPa, x2 = 0.7491	769.8
323.02 K, 19024 kPa, x2 = 0.7491	770.6
323.02 K, 20021 kPa, x2 = 0.7491	771.5
323.09 K, 1017 kPa, x2 = 0.9432	659.3
323.09 K, 2024 kPa, x2 = 0.9432	660.6
323.09 K, 3024 kPa, x2 = 0.9432	661.9
323.09 K, 4016 kPa, x2 = 0.9432	663.1
323.09 K, 5024 kPa, x2 = 0.9432	664.2
323.09 K, 6021 kPa, x2 = 0.9432	665.5
323.09 K, 7018 kPa, x2 = 0.9432	666.6
323.09 K, 8020 kPa, x2 = 0.9432	667.8
323.09 K, 9019 kPa, x2 = 0.9432	668.9
323.09 K, 10010 kPa, x2 = 0.9432	670
323.09 K, 11012 kPa, x2 = 0.9432	671.1
323.09 K, 12013 kPa, x2 = 0.9432	672.2
323.09 K, 13021 kPa, x2 = 0.9432	673.3
323.09 K, 14023 kPa, x2 = 0.9432	674.3
323.09 K, 15015 kPa, x2 = 0.9432	675.3
323.09 K, 16001 kPa, x2 = 0.9432	676.3
323.09 K, 17028 kPa, x2 = 0.9432	677.3
323.09 K, 18003 kPa, x2 = 0.9432	678.3
323.09 K, 19001 kPa, x2 = 0.9432	679.3
323.09 K, 20017 kPa, x2 = 0.9432	680.3
332.66 K, 1020 kPa, x2 = 0.2588	991.1
332.66 K, 2021 kPa, x2 = 0.2588	991.9
332.66 K, 3022 kPa, x2 = 0.2588	992.7
332.66 K, 4018 kPa, x2 = 0.2588	993.5
332.66 K, 5021 kPa, x2 = 0.2588	994.3
332.66 K, 6012 kPa, x2 = 0.2588	995
332.66 K, 7018 kPa, x2 = 0.2588	995.8
332.66 K, 8005 kPa, x2 = 0.2588	996.6
332.66 K, 9012 kPa, x2 = 0.2588	997.3
332.66 K, 10011 kPa, x2 = 0.2588	998.2
